Key:
Erwinia amylovora = test: Absorption and fluorescence change of B-1 in the presence of E. amylovora; assay type: cell-based; conditions: B-1 10 μM, E. amylovora 4.3×10^8 CFU
Method: (§1) To evaluate the absorption and fluorescence properties of the phosphor compound B-1 synthesized in Example 1, the changes in the absorption and fluorescence spectra of B-1 were measured in aqueous solution and in the presence of Erwinia amylovora, the causal pathogen of fire blight in fruit trees, and the results are shown in FIG. 2.
(§2) Specifically, the E. amylovora used in the experiment was cultured overnight at 26° C. in Luria-Bertani (LB) liquid medium. After cultivation, E. amylovora was harvested by centrifugation at 10,000 ref. First, B-1 was added, and its absorption and fluorescence spectra were analyzed in aqueous solution. Then, E. amylovora (4.3×10^8 CFU) was added to the aqueous solution containing B-1, and the changes in the absorption and fluorescence spectra were analyzed. A UV/Vis spectrophotometer (Agilent, USA) was used to analyze the absorbance spectra, and a fluorescence spectrophotometer (SHIMADZU CORP. RF-6000, Japan) was used for fluorescence spectra analysis. For all spectral measurements, a standard quartz cell with a path length of 1 cm (Hellma Analytics, Germany) was used.
(§3) The measurement results are shown in FIG. 2, where the absorption and fluorescence spectra of B-1 (10 μM) in aqueous solution are represented by a dashed line, and those in the presence of E. amylovora are represented by a solid line.

E. amylovora [1] = test: Time-dependent detection capability of B-1 for E. amylovora; assay type: cell-based, Erwinia amylovora; conditions: B-1 10 μM, E. amylovora 10^8 CFU/mL in DI H2O, 686 nm, excitation 550 nm, monitored up to 40 minutes
Method: Specifically, 10 μM of B-1 was reacted with E. amylovora at a concentration of 10^8 CFU/mL, quantified as described in Example 3, in DI H2O. Fluorescence changes were monitored at 686 nm with 550 nm excitation for up to 40 minutes.

E. amylovora [2] = test: Fluorescence response of B-1 according to concentration of E. amylovora; assay type: cell-based, Erwinia amylovora; conditions: B-1 10 μM, E. amylovora 2×10^6 to 4×10^8 CFU/mL in DI H2O, excitation 550 nm
Method: Specifically, to determine the concentration of E. amylovora obtained as described in Example 2, absorbance at 600 nm was measured (OD600 0.1=1×10^8 cells). E. amylovora was then diluted in DI H2O to concentrations ranging from 2×10^6 to 4×10^8 CFU/mL, and each dilution was reacted with 10 μM of B-1. Fluorescence intensity at 686 nm was recorded after excitation at 550 nm, and plotted on a graph.

E. amylovora [3] = test: Limit of detection of B-1 for E. amylovora; assay type: cell-based, Erwinia amylovora; conditions: B-1 5 μM in DI H2O, emission 686 nm, excitation 551 nm, serially diluted E. amylovora
Method: E. amylovora was serially diluted and reacted with the phosphor compound B-1 synthesized in Example 1 to evaluate its minimum detection capability, and the results are shown in FIG. 4.
Specifically, quantified E. amylovora, as prepared in Example 3, was reacted with 5 μM of B-1 in DI H2O. Fluorescence intensity was then measured at 686 nm with an excitation wavelength of 551 nm, and the results were plotted on a graph.

[4] = Absorption and fluorescence properties of B-1 in aqueous solution; assay type: physicochemical
Method: as §1, §2, §3

E. amylovora [5] = test: Detection of E. amylovora on agricultural tool surfaces (spraying); parameters: species or system Erwinia amylovora; conditions: 100 μM B-1 sprayed twice, 365 nm flashlight
Source text: To evaluate whether the phosphor compound B-1 synthesized in Example 1 could detect E. amylovora present on objects, a spraying-based detection method was employed. As the test object, farming tools, which are known to be one of the causes of cross-contamination from infected plants in orchards, were used.
Specifically, to simulate farming tools exposed to E. amylovora, pruning shears and a trowel were either used to cut fire blight-infected plants directly or rubbed in soil contaminated with E. amylovora, as shown in FIG. 9a. Detection of E. amylovora was carried out by spraying 100 μM of B-1 solution twice onto the tool surfaces, and fluorescence images were captured under a 365 nm flashlight.

E. amylovora [6] = test: Detection of E. amylovora on apple tree tissues (spray and swab methods); parameters: species or system Erwinia amylovora; conditions: tissue incubated with E. amylovora 10^8 CFU/mL
Method: Detection of E. amylovora on each plant tissue was then attempted by either spraying with a 100 μM solution of B-1 or swabbing with a cotton swab soaked in B-1 solution. Fluorescence changes were observed under a 365 nm flashlight.

E. amylovora [7] = test: Staining ability for E. amylovora, confocal laser scanning microscopy; assay type: cell-based, Erwinia amylovora; conditions: B-1 30 μM with DAPI 300 nM in PBS, 1 hour
Method: Specifically, E. amylovora obtained as described in Example 2 was stained by reacting with 30 μM of B-1 in phosphate-buffered saline (PBS) for 1 hour. To visualize […] E. amylovora, a counterstain with 300 nM of 4′,6-diamidino-2-phenylindole (DAPI) was applied simultaneously. The stained E. amylovora was then washed three times with PBS to remove residual B-1 and DAPI, followed by heat fixation and mounting on a slide glass for imaging using a confocal laser scanning microscope (Carl Zeiss, Germany). During confocal microscopy, differential interference contrast (DIC) images were also captured. The wavelengths used for imaging were as follows: [DAPI] excitation wavelength: 405 nm, emission wavelength: 410-530 nm, [B-1] excitation wavelength: 561 nm, emission wavelength: 600-700 nm.

E. amylovora [8] = test: Detection of E. amylovora on plant surfaces (spraying method), immature apples and apple blossoms; parameters: species or system Erwinia amylovora; conditions: 100 μM B-1 sprayed twice, 365 nm flashlight
Method: To evaluate whether E. amylovora present on actual plant surfaces could be detected using the phosphor compound B-1 synthesized in Example 1, a spraying-based detection was performed by applying B-1 to tissues (organs: fruits and blossoms) of a Fuji apple tree, and the procedure and results are shown in FIG. 7.
Specifically, to simulate plants infected with fire blight in fruit trees, E. amylovora quantified as described in Example 3 at concentrations of 10^2 to 10^8 CFU/mL was applied to immature apples (fruits) and apple blossoms using a brush, as shown in FIG. 7a. To allow E. amylovora to adhere to the plant surface, the samples were air-dried for 10 minutes. For detection, a 100 μM solution of B-1 diluted in […] was sprayed twice, and 10 minutes later, fluorescence changes were observed under a 365 nm flashlight.

Row | Compound | change of absorption spectrum upon addition of E. amylovora (Erwinia amylovora) | wavelength of highest fluorescence increase (Erwinia amylovora; excitation 550 nm) [nm] | fluorescence change upon addition of E. amylovora (Erwinia amylovora; excitation 550 nm, compared to aqueous condition alone) | time to rapid fluorescence increase (E. amylovora [1]) [min] | fluorescence intensity at 686 nm versus E. amylovora concentration (E. amylovora [2]) | lowest detectable concentration of E. amylovora (E. amylovora [3]) | maximum absorption ([4]; B-1 10 μM in aqueous solution) [nm] | fluorescence in aqueous solution ([4]; B-1 10 μM, aqueous solution, excitation 550 nm) | fluorescence of contaminated areas of pruning shears and trowel (E. amylovora [5]) | fluorescence on infected apple twigs, spraying (E. amylovora [6]; 100 μM B-1 sprayed, 365 nm flashlight) | fluorescence of B-1-soaked swab rubbed onto infected apple blossoms and leaves (E. amylovora [6]; cotton swab soaked with B-1, 365 nm flashlight) | staining of E. amylovora (confocal fluorescence) (E. amylovora [7]) | lowest detectable level of E. amylovora on actual plant surfaces (E. amylovora [8]; ImageJ quantification) | red fluorescence on immature apples and apple blossoms (E. amylovora [8]; E. amylovora 10^2 to 10^8 CFU/mL brushed on, 10 minutes)
1 | CN(C)c1ccc2cc3cc(C(=C(C#N)C#N)c4ccccc4)oc3cc2c1 [Compound B-1] | slight overall increase | 686 | significant enhancement | ≤ 10 | increased in proportion to the concentration of E. amylovora | 10^2 CFU/mL | 550 | little to no fluorescence | emitted red fluorescence | red fluorescence was observed | red fluorescence was emitted from the swab | capable of staining live E. amylovora and produces strong red fluorescence | 10^2 CFU/mL | red fluorescence was observed for all concentrations
2 | N=C(N)c1ccc(-c2cc3ccc(C(=N)N)cc3[nH]2)cc1 [DAPI, 4′,6-diamidino-2-phenylindole, reference compound] |  |  |  |  |  |  |  |  |  |  |  | fluorescence signals were observed |  | 

From patent US20260116865A1, “PHOSPHOR FOR DETECTING FIRE BLIGHT PATHOGEN AND USE THEREOF” (UNIVERSITY-INDUSTRY COOPERATION GROUP OF KYUNG HEE …, priority 2023, published 2026)
